Results reported in US9676701B2, “Cyclopropylamine derivatives useful as LSD1 inhibitors” (Oryzon Genomics, S.A., priority 2010, dated 2017).
Where a name gives a salt, the structure may show the parent alone.

Legend:
MAO-A = MAO-A (Homo sapiens (Human), UniProt P21397); details: read-out: MAO-A (Ki)
[1] = target: Human recombinant LSD1 protein (Homo sapiens (Human), UniProt O60341); experiment: biochemical
From the text: The ability of the compounds of the invention to inhibit LSD1 can be tested as follows. Human recombinant LSD1 protein was purchased from BPS Bioscience Inc. In order to monitor LSD1 enzymatic activity and/or its inhibition rate by our inhibitor(s) of interest, di-methylated H3-K4 peptide (Millipore) was chosen as a substrate. The demethylase activity was estimated, under aerobic conditions, by measuring the release of H2O2 produced during the catalytic process, using the Amplex® Red peroxide/peroxidase-coupled assay kit (Invitrogen).
Within the experiment, each concentration of inhibitor was tested in triplicate. […] The enzymatic reactions were set up in a 50 mM sodium phosphate, pH 7.4 buffer. At the end of the incubation, Amplex® Red reagent and horseradish peroxidase (HPR) solution were added to the reaction according to the recommendations provided by the supplier (Invitrogen), and left to incubate for 30 extra minutes at room temperature in the dark. A 1 μM H2O2 solution was used as a control of the kit efficiency.
The Ki (IC50) of each inhibitor was estimated at half of the maximum activity.

MAO-B = MAO-B (Homo sapiens (Human), UniProt P27338); details: read-out: MAO-B (Ki)
Sequence of MAO-B (P27338 whole entry): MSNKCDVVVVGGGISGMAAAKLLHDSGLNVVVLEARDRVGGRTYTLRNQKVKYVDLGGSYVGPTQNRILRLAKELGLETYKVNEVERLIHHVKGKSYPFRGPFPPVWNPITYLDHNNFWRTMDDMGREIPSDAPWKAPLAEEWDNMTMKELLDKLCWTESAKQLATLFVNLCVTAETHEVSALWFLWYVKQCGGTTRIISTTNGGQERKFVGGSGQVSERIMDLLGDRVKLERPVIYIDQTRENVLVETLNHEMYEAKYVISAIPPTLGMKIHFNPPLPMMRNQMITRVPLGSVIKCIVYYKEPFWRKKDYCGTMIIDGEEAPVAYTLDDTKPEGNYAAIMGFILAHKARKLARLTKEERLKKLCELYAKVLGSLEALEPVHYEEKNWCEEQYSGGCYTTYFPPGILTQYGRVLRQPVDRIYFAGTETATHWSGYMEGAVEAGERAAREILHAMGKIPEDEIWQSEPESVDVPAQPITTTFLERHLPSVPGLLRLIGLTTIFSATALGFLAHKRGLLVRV

Sequence of MAO-A (P21397 whole entry): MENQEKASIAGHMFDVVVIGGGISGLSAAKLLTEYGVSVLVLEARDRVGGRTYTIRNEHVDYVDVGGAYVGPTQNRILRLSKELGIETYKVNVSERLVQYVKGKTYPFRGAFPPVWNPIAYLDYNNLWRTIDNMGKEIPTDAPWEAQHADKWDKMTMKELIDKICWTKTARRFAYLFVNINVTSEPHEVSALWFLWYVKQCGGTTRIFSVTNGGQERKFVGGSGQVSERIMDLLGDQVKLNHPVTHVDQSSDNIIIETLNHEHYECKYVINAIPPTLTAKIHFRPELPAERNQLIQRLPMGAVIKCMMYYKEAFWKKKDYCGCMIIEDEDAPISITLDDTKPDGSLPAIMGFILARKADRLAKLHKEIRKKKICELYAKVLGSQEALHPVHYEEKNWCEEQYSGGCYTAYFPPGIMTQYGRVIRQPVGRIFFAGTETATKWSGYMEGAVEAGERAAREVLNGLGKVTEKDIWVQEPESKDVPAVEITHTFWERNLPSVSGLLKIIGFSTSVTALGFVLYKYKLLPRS

With `Cc1cccc(-c2ccc([C@H]3C[C@@H]3N)cn2)c1` (relative stereo) [Example 15, (Trans)-2-(6-m-tolylpyridin-3-yl)cyclopropanamine hydrochloride] the Ki (MAO-A) was 1000 to 40000 nM, the Ki [1] was 100 to 1000 nM and the Ki (MAO-B) was 1000 to 40000 nM.

In the case of `N[C@H]1C[C@@H]1c1ccc(-c2cc(C(F)(F)F)ccc2Cl)nc1` (relative stereo) [Example 50, (trans)-2-(6-(2-chloro-5-(trifluoromethyl)phenyl)pyridin-3-yl)cyclopropanamine hydrochloride], the Ki (MAO-A) is reported as 1000 to 40000 nM, the Ki [1] is reported as 100 to 1000 nM and the Ki (MAO-B) is reported as 1000 to 40000 nM.

Work on `N[C@H]1C[C@@H]1c1ccc(-c2csc3ccccc23)nc1` (relative stereo) [Example 55, (trans)-2-(6-(benzo[b]thiophen-3-yl)pyridin-3-yl)cyclopropanamine hydrochloride] yielded a Ki (MAO-A) of 1000 to 40000 nM, a Ki [1] of 100 to 1000 nM and a Ki (MAO-B) of 1000 to 40000 nM.

With `N[C@H]1C[C@@H]1c1ccc(-c2ccc(F)c(O)c2)cc1` (relative stereo) [Example 66, 4′-((trans)-2-aminocyclopropyl)-4-fluorobiphenyl-3-ol hydrochloride] the Ki [1] was 1 to 100 nM.

`N[C@H]1C[C@@H]1c1ccc(-c2ccc(Cl)s2)nc1` (relative stereo) [Example 31, (trans)-2-(6-(5-chlorothiophen-2-yl)pyridin-3-yl)cyclopropanamine hydrochloride] gave a Ki (MAO-A) of 1000 to 40000 nM, a Ki [1] of 1 to 100 nM and a Ki (MAO-B) of 1000 to 40000 nM.

Work on `N[C@H]1C[C@@H]1c1ccc(-c2ccc(O)cc2)nc1` (relative stereo) [Example 16, 4-(5-((trans)-2-aminocyclopropyl)pyridin-2-yl)phenol hydrochloride] yielded a Ki (MAO-A) of 1000 to 40000 nM, a Ki [1] of 100 to 1000 nM and a Ki (MAO-B) of 1000 to 40000 nM.

`N[C@H]1C[C@@H]1c1ccc(-c2cc3ccccc3s2)nc1` (relative stereo) [Example 54, (trans)-2-(6-(benzo[b]thiophen-2-yl)pyridin-3-yl)cyclopropanamine hydrochloride] was tested, and the Ki (MAO-A) was 1000 to 40000 nM, the Ki [1] was 100 to 1000 nM and the Ki (MAO-B) was 1000 to 40000 nM.

In the case of `N#Cc1ccc(-c2ccc([C@H]3C[C@@H]3N)cn2)s1` (relative stereo) [Example 56, 5-(5-((trans)-2-aminocyclopropyl)pyridin-2-yl)thiophene-2-carbonitrile hydrochloride], the Ki (MAO-A) is reported as 1000 to 40000 nM, the Ki [1] is reported as 1 to 100 nM and the Ki (MAO-B) is reported as 1000 to 40000 nM.

For `CS(=O)(=O)Nc1ccccc1-c1ccc([C@H]2C[C@@H]2N)cn1` (relative stereo) [Example 71, N-(2-(5-((trans)-2-aminocyclopropyl)pyridin-2-yl)phenyl)methanesulfonamide hydrochloride], the Ki (MAO-A) was 1000 to 40000 nM, the Ki [1] was 100 to 1000 nM and the Ki (MAO-B) was 1000 to 40000 nM.

For `N#Cc1cccc(-c2ccc([C@H]3C[C@@H]3N)cn2)c1` (relative stereo) [Example 13, 3-(5-((trans)-2-aminocyclopropyl)pyridin-2-yl)benzonitrile hydrochloride], the Ki (MAO-A) was 1000 to 40000 nM, the Ki [1] was 1 to 100 nM and the Ki (MAO-B) was 1000 to 40000 nM.

In the case of `N[C@H]1C[C@@H]1c1ccc(-c2cc(O)cc(Cl)c2)nc1` (relative stereo) [Example 29, 3-(5-((trans)-2-aminocyclopropyl)pyridin-2-yl)-5-chlorophenol hydrochloride], the Ki (MAO-A) is reported as 1000 to 40000 nM, the Ki [1] is reported as 1 to 100 nM and the Ki (MAO-B) is reported as 1000 to 40000 nM.

`N#Cc1ccccc1S(=O)(=O)Nc1cccc(-c2ncc([C@H]3C[C@@H]3N)s2)c1` (relative stereo) [Example 124, N-(3-(5-((trans)-2-aminocyclopropyl)thiazol-2-yl)phenyl)-2-cyanobenzenesulfonamide dihydrochloride] showed a Ki (MAO-A) of 1000 to 40000 nM, a Ki [1] of 1 to 100 nM and a Ki (MAO-B) of 1000 to 40000 nM.

With `Cc1nc(-c2cccc(C(F)(F)F)c2)ccc1[C@H]1C[C@@H]1N` (relative stereo) [Example 80, (trans)-2-(2-methyl-6-(3-(trifluoromethyl)phenyl)pyridin-3-yl)cyclopropanamine hydrochloride] the Ki (MAO-A) was 1000 to 40000 nM, the Ki [1] was 100 to 1000 nM and the Ki (MAO-B) was 1000 to 40000 nM.

Work on `CC(C)S(=O)(=O)Nc1cccc(-c2ccc([C@H]3C[C@@H]3N)cc2)c1` (relative stereo) [Example 69, N-(4′-((trans)-2-aminocyclopropyl)biphenyl-3-yl)propane-2-sulfonamide hydrochloride] yielded a Ki [1] of 1 to 100 nM.

Work on `Cc1ccc(-c2ccc([C@H]3C[C@@H]3N)cn2)cc1O` (relative stereo) [Example 46, 5-(5-((trans)-2-aminocyclopropyl)pyridin-2-yl)-2-methylphenol hydrochloride] yielded a Ki (MAO-A) of 1000 to 40000 nM, a Ki [1] of 1 to 100 nM and a Ki (MAO-B) of 1000 to 40000 nM.

For `COc1ccc(Cl)c(-c2ccc([C@H]3C[C@@H]3N)cn2)c1` (relative stereo) [Example 43, (trans)-2-(6-(2-chloro-5-methoxyphenyl)pyridin-3-yl)cyclopropanamine hydrochloride], the Ki (MAO-A) was 1000 to 40000 nM, the Ki [1] was 100 to 1000 nM and the Ki (MAO-B) was 1000 to 40000 nM.

Work on `N[C@H]1C[C@@H]1c1ccc(-c2cccc(O)c2F)nc1` (relative stereo) [Example 26, 3-(5-((trans)-2-aminocyclopropyl)pyridin-2-yl)-2-fluorophenol hydrochloride] yielded a Ki (MAO-A) of 1000 to 40000 nM, a Ki [1] of 100 to 1000 nM and a Ki (MAO-B) of 1000 to 40000 nM.

Molecule `N[C@H]1C[C@@H]1c1ccc(-c2cccc(NS(=O)(=O)C(F)(F)F)c2)cc1` (relative stereo) [Example 103, N-(4′-((trans)-2-aminocyclopropyl)-[1,1′-biphenyl]-3-yl)-1,1,1-trifluoromethanesulfonamide hydrochloride] has a Ki [1] of 100 to 1000 nM.

`COc1ccc(C#N)cc1-c1ccc([C@H]2C[C@@H]2N)cn1` (relative stereo) [Example 72, 3-(5-((trans)-2-aminocyclopropyl)pyridin-2-yl)-4-methoxybenzonitrile hydrochloride] gave a Ki (MAO-A) of 1000 to 40000 nM, a Ki [1] of 100 to 1000 nM and a Ki (MAO-B) of 1000 to 40000 nM.

With `N[C@H]1C[C@@H]1c1ccc(-c2cccc(C(F)(F)F)c2)cc1` (relative stereo) [Example 1, (trans)-2-(3′-(trifluoromethyl)biphenyl-4-yl)cyclopropanamine hydrochloride] the Ki (MAO-A) was 1000 to 40000 nM, the Ki [1] was 100 to 1000 nM and the Ki (MAO-B) was 1000 to 40000 nM.

Molecule `NC(=O)c1cccc(-c2ccc([C@H]3C[C@@H]3N)cn2)c1` (relative stereo) [Example 19, 3-(5-((trans)-2-aminocyclopropyl)pyridin-2-yl)benzamide hydrochloride] has a Ki (MAO-A) of 1000 to 40000 nM, a Ki [1] of 100 to 1000 nM and a Ki (MAO-B) of 1000 to 40000 nM.

`N[C@H]1C[C@@H]1c1ccc(-c2cc(O)ccc2Cl)nc1` (relative stereo) [Example 47, 3-(5-((trans)-2-aminocyclopropyl)pyridin-2-yl)-4-chlorophenol hydrochloride] was tested, and the Ki (MAO-A) was 1000 to 40000 nM, the Ki [1] was 100 to 1000 nM and the Ki (MAO-B) was 1000 to 40000 nM.

With `COc1cccc(-c2ccc([C@H]3C[C@@H]3N)cn2)c1F` (relative stereo) [Example 41, (trans)-2-(6-(2-fluoro-3-methoxyphenyl)pyridin-3-yl)cyclopropanamine hydrochloride] the Ki (MAO-A) was 1000 to 40000 nM, the Ki [1] was 100 to 1000 nM and the Ki (MAO-B) was 1000 to 40000 nM.

Molecule `CC(=O)Nc1cccc(-c2ccc([C@H]3C[C@@H]3N)cn2)c1` (relative stereo) [Example 52, N-(3-(5-((trans)-2-aminocyclopropyl)pyridin-2-yl)phenyl)acetamide hydrochloride] has a Ki (MAO-A) of 1000 to 40000 nM, a Ki [1] of 100 to 1000 nM and a Ki (MAO-B) of 1000 to 40000 nM.

For `N[C@H]1C[C@@H]1c1ccc(-c2cc(O)c(F)c(F)c2)nc1` (relative stereo) [Example 59, 5-(5-((trans)-2-aminocyclopropyl)pyridin-2-yl)-2,3-difluorophenol hydrochloride], the Ki [1] was 1 to 100 nM and the Ki (MAO-B) was 1000 to 40000 nM.

With `N[C@H]1C[C@@H]1c1ccc(-c2cccc(C(F)(F)F)c2F)nc1` (relative stereo) [Example 30, (trans)-2-(6-(2-fluoro-3-(trifluoromethyl)phenyl)pyridin-3-yl)cyclopropanamine hydrochloride] the Ki (MAO-A) was 1000 to 40000 nM, the Ki [1] was 100 to 1000 nM and the Ki (MAO-B) was 1000 to 40000 nM.

`N[C@H]1C[C@@H]1c1ccc(-c2cc(O)cc(F)c2)nc1` (relative stereo) [Example 24, 3-(5-((trans)-2-aminocyclopropyl)pyridin-2-yl)-5-fluorophenol hydrochloride] gave a Ki (MAO-A) of 1000 to 40000 nM, a Ki [1] of 1 to 100 nM and a Ki (MAO-B) of 1000 to 40000 nM.

For `N[C@H]1C[C@@H]1c1ccc(-c2cc(O)cc(Cl)c2)cc1` (relative stereo) [Example 67, 4′-((trans)-2-aminocyclopropyl)-5-chlorobiphenyl-3-ol hydrochloride], the Ki [1] was 1 to 100 nM.

`N[C@H]1C[C@@H]1c1ccc(-c2ccc3c(c2)NC(=O)C3)nc1` (relative stereo) [Example 62, 6-(5-((trans)-2-aminocyclopropyl)pyridin-2-yl)indolin-2-one hydrochloride] showed a Ki (MAO-A) of 1000 to 40000 nM, a Ki [1] of 100 to 1000 nM and a Ki (MAO-B) of 1000 to 40000 nM.

For `COc1cc(-c2ccc([C@H]3C[C@@H]3N)cn2)ccc1F` (relative stereo) [Example 38, (trans)-2-(6-(4-fluoro-3-methoxyphenyl)pyridin-3-yl)cyclopropanamine hydrochloride], the Ki (MAO-A) was 1000 to 40000 nM, the Ki [1] was 100 to 1000 nM and the Ki (MAO-B) was 1000 to 40000 nM.

Molecule `N[C@H]1C[C@@H]1c1ccc(-c2cccc(NS(=O)(=O)c3ccccc3)c2)cc1` (relative stereo) [Example 68, N-(4′-((trans)-2-aminocyclopropyl)biphenyl-3-yl)benzenesulfonamide hydrochloride] has a Ki [1] of 1 to 100 nM.

`CS(=O)(=O)Nc1cc(-c2ccc([C@H]3C[C@@H]3N)cn2)ccc1F` (relative stereo) [Example 97, N-(5-(5-((trans)-2-aminocyclopropyl)pyridin-2-yl)-2-fluorophenyl)methanesulfonamide hydrochloride] gave a Ki (MAO-A) of 1000 to 40000 nM, a Ki [1] of 100 to 1000 nM and a Ki (MAO-B) of 1000 to 40000 nM.

`N[C@H]1C[C@@H]1c1ccc(-c2ccc(F)c(O)c2)nc1` (relative stereo) [Example 23, 5-(5-((trans)-2-aminocyclopropyl)pyridin-2-yl)-2-fluorophenol hydrochloride] gave a Ki (MAO-A) of 1000 to 40000 nM, a Ki [1] of 1 to 100 nM and a Ki (MAO-B) of 1000 to 40000 nM.
